From US20050049273A1, “Acridone derivatives as anti-herpesvirus agents” (priority 2003, published 2005)
Read-outs that look alike come from different tables or passages of the source. One block for each compound: values may come before it.

Tests used:
HSV = settings: published work; cited from earlier work
HSV-1 = HSV-1 viral yield-reduction assay in Vero cells; assay type: cell-based, HSV-1 (KOS); settings: for EC50: read-out: ED50 HSV-1
Method: (§1) Three types of antiviral assay were used for HSV studies. For plaque-elimination, Vero cells (70000 per cm^2) were infected with 50-100 PFU for 30 minutes with occasional agitation. The inoculate was replaced with medium containing 1% (v/v) fetal calf serum and supplemented with test agents as indicated (see below). After two days of culture, cells were processed using crystal violet staining and plaques were scored by visual examination (FIG. 3). For examination of anti-HSV activity in parallel cultures during biochemical experiments, the progeny virus obtained from cells and from the culture medium at 23 hours post-infection was determined by limiting dilution on Vero cells (FIG. 5A). Macroscopic viral plaques were scored after two days of incubation in medium containing 1% (w/v) carboxymethylcellulose and 0.5% (v/v) fetal calf serum. For ED50 measurements, the concentration of compound that reduced a single-cycle of viral yield by 50% relative to the control and under the specified condition was interpolated from dose-response graphs (FIG. 4, Table 1). Over the course of ten independent experiments, the mean cell-associated viral yield was 180 PFU per cell (SD=80) and 10 PFU per cell (SD=5) for HSV-1 and HSV-2 respectively. The percent viral release (into the culture medium) was 16 (SD=7) and 0.9 (SD=0.6) for HSV-1 and HSV-2 respectively. These virologic parameters were independent of viral load and serum concentration.

HSV-2 [1] = assay: HSV-2 viral yield-reduction assay in Vero cells; assay type: cell-based, HSV-2 (strain 186); settings: for EC50: read-out: ED50 HSV-2
Method: as §1

HCMV = HCMV plaque-elimination assay in HEL cells; assay type: cell-based, HCMV (Towne); settings: for EC50: read-out: ED50 HCMV; for activity against HCMV, in words: quantitative comparison, Table 1; for percent inhibition observed at the highest concentration tested, HCMV: number in parenthesis, NA = no activity observed; for inhibition of HCMV replication in plaque-elimination screen: fixed concentration, five micromolar (1, 2, ACV ten micromolar; PFA 250 micromolar), FIG. 3
Method: Virus and cell growth inhibition assays. Established virus culture techniques were used (E.-S. Huang, and T Kowalnick, Diagnosis of human cytomegalovirus infection: laboratory approaches, in Molecular Aspects of Human Cytomegalovirus Diseases (Becker,Y., Daria, G., and Huang, E.-S. eds.), Springer-Verlag, Berlin, pp. 225-255 (1993); Akanitapichat et al., Antiviral Research 45: 123-134 (2000)) but with the following modifications. For the HCMV plaque-elimination assay, HEL cells were plated in standard medium at 60,000 per cm^2 and infected the following day with 50-100 PFU HCMV for 90 minutes with occasional agitation. The inoculate was replaced with maintenance medium containing 5% (v/v) fetal calf serum and test agents as indicated (see below). After an additional 6-10 days of culture, cells were fixed with formal saline (10% formalin in phosphate-buffered saline; PBS), stained with 0.1% (w/v) toluidine blue in PBS and plaques were scored using an inverted light microscope at 40x magnification (FIGS. 2A and 3). For ED50 determination, the value was interpolated from dose-response data and is the concentration of compound that reduced plaque formation by 50% relative to control under the specified condition.

[2] = Vero cell growth inhibition (Sulforhodamine B protein-dye binding); assay type: cell-based, African green monkey; settings: African green monkey
Method: (§2) The effect of compounds on host cell replication (CC50), was measured using Sulforhodamine B-staining and the spectrophotometric method originally developed for the NCIs's in vitro anti-cancer drug screening program (P. Skehan et al., J. Natl. Cancer. Inst. 82, 1107-1112 (1990)). The CC50 value is the concentration of compound that inhibited actively replicating cells by 50% of control respectively after two days of continuous treatment.

Vero = assay: as above; assay type: cell-based, African green monkey; settings: for percent inhibition observed at the highest concentration tested, Vero growth: number in parenthesis
Method: as §2

[3] = HEL cell growth inhibition (Sulforhodamine B protein-dye binding); assay type: cell-based, human; settings: human, cell growth inhibition, two days of continuous treatment
Method: as §2

HSV-1 proteins = assay: HSV-1 viral protein accumulation (Western immunoblot); assay type: cell-based; settings: 10 micromolar, 16 hours, 2% (v/v) serum, FIG. 5D
HEL = HEL cell growth inhibition (Sulforhodamine B protein-dye binding); assay type: cell-based, human; settings: for percent inhibition observed at the highest concentration tested, HEL growth: number in parenthesis, NA = no activity observed
Method: as §2

HSV-2 [4] = assay: HSV-2 plaque-elimination assay in Vero cells; assay type: cell-based, HSV-2 (strain 186); settings: fixed concentration, five micromolar (1, 2, ACV ten micromolar; PFA 250 micromolar), Vero cells, FIG. 3
Method: as §1

[5] = test system: HSV-2 late viral proteins; assay: HSV-2 late viral protein synthesis (pulse labeling, SDS-PAGE, phosphor-imaging); assay type: cell-based; settings: twenty micromolar, 0.1 PFU, 2% (v/v) serum
Method: Analysis of HSV proteins. Viral protein synthesis was examined using pulse labeling, SDS-PAGE gel separation and phosphor-imaging. Vero cells were infected and treated under conditions specified below and in FIG. 5. After 17 hours of infection, 10 μCi/mL TRAN^35S-LABEL ™ was added directly to culture medium and incubation continued for 30 more minutes. Radio-labeled cell cultures were carefully washed with PBS pre-warmed to 37° C. then lysed at 2,000,000 cells per mL in the same buffer supplemented with 2% (w/v) SDS. After denaturing cell lysates in Laemmli loading buffer, total proteins recovered from 30,000 cells were separated using either 8% (FIG. 5B) or 10% (FIG. 5D) PAGE-SDS gels (U. Laemmli, Nature, 227,680-685 (1970)). Proteins were transferred to nitrocellulose and the synthesized proteins were visualized and quantified using a STORM phosphorimager (Molecular Devices, Sunnyvale CA) and the supplied ImageQuant software according to the manufacturers instructions (FIG. 5, panels B and C). Protein load between samples was compared qualitatively by visual examination of filters stained with India-Ink. A complementary approach for assessing drug effect on viral proteins involved immune detection on a Western-blot using conditions and reagents described previously (Akanitapichat and Bastow, supra 2002).

host cell replication = assay: Host cell replication (CC50), host cell not specified; assay type: cell-based; settings: mean CC50
Method: as §2

[6] = Human alphaherpesvirus 1, viral yield-reduction, 1 PFU per cell in 5% (v/v) serum, Vero cells
[7] = Human alphaherpesvirus 2, viral yield-reduction, 1 PFU per cell in 5% (v/v) serum, Vero cells
[8] = Human betaherpesvirus 5, prevention of microscopic viral plaques, HEL cells
[9] = Vero cells, cell growth inhibition, two days of continuous treatment, read-out: CC50 Vero
[10] = quantitative comparison, Table 1
[11] = cell growth inhibition, two days of continuous treatment

Compound: O=c1c2cc(O)ccc2[nH]c2cc(O)cc(O)c12 [1,3,7-trihydroxyacridone]
- selectivity of anti-HSV action (HSV): 3 fold

Compound: Nc1nc2c(ncn2COCCO)c(=O)[nH]1 [ACV, Acyclovir]
- EC50 (HSV-1; [6]): 0.2 µM
- activity against HSV-2 relative to HSV-1 (HSV-2 [1]): four-fold less active
- EC50 (HSV-2 [1]; [7]): 0.8 ± 0.1 µM
- EC50 (HCMV; [8]): > 200 µM
- activity against HCMV, in words (HCMV): inactive
- CC50 at 2 days [2, 9]: > 200 µM
- percent inhibition observed at the highest concentration tested, Vero growth (Vero): 41%
- CC50 at 2 days ([3]; HEL cells): > 500 µM
- effect on HSV-1 viral protein accumulation (HSV-1 proteins): abolished

Compound: COc1cc(O)c2c(=O)c3cccc(O)c3n(C)c2c1OC [Citrusinine-I]
- activity against HSV-1 (KOS), in words (HSV-1; [10]): inactive
- activity against HSV-2, in words (HSV-2 [1]; [10]): selective inhibitor
- HSV-2 replication remaining (HSV-2 [1]; twenty micromolar, 0.1 PFU, 22 hours, 2% (v/v) serum): about 10 % of control
- activity against HCMV, in words (HCMV): selective inhibitor
- CC50 (Vero; [11]): 27 ± 4 µM
- CC50 (HEL; [11]): 41 ± 5 µM
- inhibition of HSV-2 replication in plaque-elimination screen (HSV-2 [4]): HSV plaque-size was uniformly smaller in the presence of Citrusinine I but the number of visible plaques was not reduced
- HSV-2 late protein synthesis remaining [5]: about 10 % of control

Compound: O=c1c2cccc(Cl)c2[nH]c2cc(O)cc(O)c12 [Compound 1, 5-chloro-1,3-dihydroxyacridone]
- EC50 (HSV-1; Human alphaherpesvirus 1, Vero): 4.3 ± 0.8 µM
- EC50 (HSV-2 [1]; Human alphaherpesvirus 2, Vero): 3.8 ± 0.3 µM
- EC50 (HCMV; Human betaherpesvirus 5, HEL): > 50 µM
- percent inhibition observed at the highest concentration tested, HCMV (HCMV): 25%
- CC50 at 2 days ([2]; cell growth inhibition, two days of continuous treatment, read-out: CC50 Vero): > 50 µM
- percent inhibition observed at the highest concentration tested, Vero growth (Vero): 23%
- CC50 at 2 days [3]: > 50 µM
- percent inhibition observed at the highest concentration tested, HEL growth (HEL): 18%
- selectivity of anti-HSV action (HSV): 26 fold

Compound: COc1ccc2[nH]c3cc(O)cc(O)c3c(=O)c2c1 [Compound 3, 1,3-Dihydroxy-7-methoxyacridone]
- inhibition of HCMV replication in plaque-elimination screen (HCMV; HEL cells): inactive
- inhibition of HSV-2 replication in plaque-elimination screen (HSV-2 [4]): inactive

Compound: COc1cc(O)c2c(=O)c3cc(O)ccc3[nH]c2c1 [Compound 4, 1,7-Dihydroxy-3-methoxyacridone]
- CC50 at 2 days ([2]; Vero cells, read-out: CC50 against Vero replication): 25 µM
- inhibition of HSV-2 replication in plaque-elimination screen (HSV-2 [4]): only inhibited HSV replication

Compound: COc1cc(O)c2c(=O)c3cccc(OC)c3[nH]c2c1 [Compound 5, 3,5-Dimethoxy-1-hydroxyyacridone]
- inhibition of HCMV replication in plaque-elimination screen (HCMV; HEL cells): inactive
- inhibition of HSV-2 replication in plaque-elimination screen (HSV-2 [4]): inactive
- CC50 (host cell replication): 33 µM

Compound: COc1ccc2[nH]c3cc(OC(C)C)cc(O)c3c(=O)c2c1 [Compound 8, 1-Hydroxy-3-isopropoxy-7-methoxyacridone]
- viral release (HSV-2 [1]; 10 μM in 2% (v/v) serum, 0.001 PFU per cell HSV-2, up to forty-eight hours after infection): completely prevented viral release
- inhibition at 10 µM (HSV-2 [1]; Human alphaherpesvirus 2, Vero, 10 μM in 2% (v/v) serum, 0.001 PFU per cell HSV-2, forty-eight hours, read-out: inhibition of production of cell-associated virus): 80%
- inhibition of HCMV replication in plaque-elimination screen (HCMV; HEL cells): almost completely preventing the formation of microscopic viral plaques
- inhibition of HSV-2 replication in plaque-elimination screen (HSV-2 [4]): almost completely preventing the formation of microscopic viral plaques

- EC50 (HCMV; [8]): 6.9 ± 0.6 µM
Compound: COc1ccc2[nH]c3cc(OCc4ccccc4)cc(O)c3c(=O)c2c1 [Compound 9, 3-Benzyloxy-1-hydroxy-7-methoxyacridone]
- anti-HCMV activity relative to compound 2 (HCMV): about five-fold less active than 2
- inhibition of HCMV replication in plaque-elimination screen (HCMV; HEL cells): inhibited HCMV but not HSV-2 replication
- inhibition of HSV-2 replication in plaque-elimination screen (HSV-2 [4]): inhibited HCMV but not HSV-2 replication

Compound: C=CCOc1cc(O)c2c(=O)c3cc(OC)ccc3[nH]c2c1 [Compound 10, 3-Allyloxy-1-hydroxy-7-methoxyacridone]
- selectivity, inhibition of HSV-1 replication (HSV-1): 41 fold
- change of ED50 concentration for inhibition of viral release (HSV-1; HSV-1, low viral load (0.01 PFU) and low serum (0.5% v/v), FIG. 4 panel D): decreased about six-fold
- inhibition at 10 µM (HSV-1; Human alphaherpesvirus 1, Vero, 10 micromolar, 16 hours, 2% (v/v) serum, various viral loads, FIG. 5D, read-out: inhibition of HSV-1 viral replication): 64 to 95%
- EC50 (HSV-1; [6]): 2.3 ± 0.3 µM
- selectivity, inhibition of HSV-2 replication (HSV-2 [1]): 24 fold
- EC50 (HSV-2 [1]; [7]): 3.9 ± 1 µM
- inhibition of HCMV replication in plaque-elimination screen (HCMV; HEL cells): almost completely preventing the formation of microscopic viral plaques
- percent inhibition observed at the highest concentration tested, HCMV (HCMV): 80%
- activity against HCMV, in words (HCMV): at least as active as the 3,7-dimethoxy lead (2)
- CC50 at 2 days [2, 9]: 95 ± 2 µM
- CC50 at 2 days ([3]; HEL cells): > 50 µM
- percent inhibition observed at the highest concentration tested, HEL growth (HEL): 33%
- inhibition of HSV-2 replication in plaque-elimination screen (HSV-2 [4]): almost completely preventing the formation of microscopic viral plaques
- effect on HSV-1 viral protein accumulation (HSV-1 proteins): no effect

Compound: COc1cc(O)c2c(=O)c3cc(OC(C)C)ccc3[nH]c2c1 [Compound 13, 1-Hydroxy-7-isopropoxy-3-methoxyacridone]
- inhibition of HCMV replication in plaque-elimination screen (HCMV; HEL cells): active
- CC50 at 2 days ([3]; HEL cells): 12 µM

Compound: O=C(O)P(=O)(O)O [PFA, phosphonoformic acid]
- EC50 (HSV-2 [1]; Human alphaherpesvirus 2, Vero): 60 ± 5 µM
- EC50 (HCMV; [8]): 70 ± 10 µM
- CC50 at 2 days [2, 9]: > 500 µM
- percent inhibition observed at the highest concentration tested, Vero growth (Vero): 11%
- CC50 at 2 days ([3]; HEL cells): > 500 µM
- percent inhibition observed at the highest concentration tested, HEL growth (HEL): 11%
